In patent US20250333406A1, “SULFONYL CYCLIC DERIVATIVES, AND COMPOSITIONS AND METHODS THEREOF” (Lysoway Therapeutics, Inc., priority 2023, published 2025):

test system: TFEB; experiment: TFEB Nuclear Translocation Assay; type: cell-based; conditions: read-out: EC50 of TFEB activation

| Structure (SMILES) | EC50 [µM] |
| --- | --- |
| CC(C)S(=O)(=O)n1ccc(S(=O)(=O)n2nc(N3CCCC4(CC4)C3)c3c(Cl)cccc32)c1 [Compound 139, 3-(5-azaspiro [2.5]octan-5-yl)-4-chloro-1-(1-isopropylsulfonylpyrrol-3-yl) sulfonyl-indazole] | ≤ 1 |
| CC(C)S(=O)(=O)n1ccc(S(=O)(=O)n2nc(N3CCN(c4ncc(Cl)cc4F)CC34CC4)c3c(Cl)cccc32)c1 [Compound 140, 4-chloro-3-[7-(5-chloro-3-fluoro-2-pyridyl)-4,7-diazaspiro [2.5]octan-4-yl]-1-(1-isopropylsulfonylpyrrol-3-yl) sulfonyl-indazole] | ≤ 1 |
| O=S(=O)(c1ccn(S(=O)(=O)C2CC2)c1)n1nc(N2CCN(c3ncc(Cl)cc3F)CC23CC3)c2c(F)ccc(F)c21 [Compound 146, 3-[7-(5-chloro-3-fluoro-2-pyridyl)-4,7-diazaspiro [2.5]octan-4-yl]-1-(1-cyclopropylsulfonylpyrrol-3-yl) sulfonyl-4,7-difluoro-indazole] | ≤ 1 |
| CC(C)S(=O)(=O)n1ccc(S(=O)(=O)n2nc(N3CCN(c4ncc(Cl)cc4F)CC34CC4)c3c(F)ccc(F)c32)c1 [Compound 148, 3-[7-(5-chloro-3-fluoro-2-pyridyl)-4,7-diazaspiro [2.5]octan-4-yl]-4,7-difluoro-1-(1-isopropylsulfonylpyrrol-3-yl) sulfonyl-indazole] | ≤ 1 |
| CC(C)S(=O)(=O)n1ccc(S(=O)(=O)n2nc(N3CCN(c4ncc(F)cn4)CC34CC4)c3c(F)ccc(F)c32)c1 [Compound 149, 4,7-difluoro-3-(7-(5-fluoropyrimidin-2-yl)-4,7-diazaspiro [2.5]octan-4-yl)-1-((1-(isopropylsulfonyl)-1H-pyrrol-3-yl)sulfonyl)-1H-indazole] | ≤ 1 |
| CC(C)S(=O)(=O)n1ccc(S(=O)(=O)n2nc(N3CCN(c4ncc(Cl)cc4F)CC34CC4)c3c(Cl)cncc32)c1 [Compound 151, 4-chloro-3-[7-(5-chloro-3-fluoro-2-pyridyl)-4,7-diazaspiro [2.5]octan-4-yl]-1-(1-isopropylsulfonylpyrrol-3-yl) sulfonyl-pyrazolo [3,4-c]pyridine] | ≤ 1 |
| CC(C)S(=O)(=O)n1ccc(S(=O)(=O)n2nc(N3CCN(c4ncc(Cl)cc4F)CC34CC4)c3c(Cl)nccc32)c1 [Compound 153, 4-chloro-3-(7-(5-chloro-3-fluoropyridin-2-yl)-4,7-diazaspiro[2.5]octan-4-yl)-1-((1-(isopropylsulfonyl)-1H-pyrrol-3-yl)sulfonyl)-1H-pyrazolo[4,3-c]pyridine] | ≤ 1 |
| CC(C)S(=O)(=O)n1ccc(S(=O)(=O)n2nc(N3CCN(c4ncc(Cl)s4)CC34CC4)c3c(Cl)cc(F)cc32)c1 [Compound 157, 5-chloro-2-(4-(4-chloro-6-fluoro-1-((1-(isopropylsulfonyl)-1H-pyrrol-3-yl)sulfonyl)-1H-indazol-3-yl)-4,7-diazaspiro [2.5]octan-7-yl) thiazole] | ≤ 1 |
| CC(C)S(=O)(=O)n1ccc(S(=O)(=O)n2nc(N3CCN(c4ncc(F)cc4F)CC34CC4)c3c(F)cc(F)cc32)c1 [Compound 159, 3-(7-(3,5-difluoropyridin-2-yl)-4,7-diazaspiro [2.5]octan-4-yl)-4,6-difluoro-1-((1-(isopropylsulfonyl)-1H-pyrrol-3-yl)sulfonyl)-1H-indazole] | ≤ 1 |
| CC(C)S(=O)(=O)n1ccc(S(=O)(=O)n2nc(N3CCN(c4ccc(F)cn4)CC34CC4)c3c(Cl)cc(F)cc32)c1 [Compound 161, 4-chloro-6-fluoro-3-[7-(5-fluoro-2-pyridyl)-4,7-diazaspiro [2.5]octan-4-yl]-1-(1-isopropylsulfonylpyrrol-3-yl) sulfonyl-indazole] | ≤ 1 |
| CC(C)S(=O)(=O)n1ccc(S(=O)(=O)n2nc(N3CCN(c4ccccn4)CC34CC4)c3c(Cl)cc(F)cc32)c1 [Compound 163, 4-chloro-6-fluoro-1-(1-isopropylsulfonylpyrrol-3-yl)sulfonyl-3-[7-(2-pyridyl)-4,7-diazaspiro[2.5]octan-4-yl]indazole] | ≤ 1 |
| CC(C)S(=O)(=O)n1ccc(S(=O)(=O)n2nc(N3CCN(c4ncccn4)CC34CC4)c3c(Cl)cc(F)cc32)c1 [Compound 164, 4-chloro-6-fluoro-1-(1-isopropylsulfonylpyrrol-3-yl)sulfonyl-3-(7-pyrimidin-2-yl-4,7-diazaspiro[2.5]octan-4-yl) indazole] | ≤ 1 |

Next, values leading:

| EC50 [µM] | Structure (SMILES) |
| --- | --- |
| ≤ 1 | CC(C)S(=O)(=O)n1ccc(S(=O)(=O)n2nc(N3CCN(c4ncc(F)cc4F)CC34CC4)c3c(Cl)cccc32)c1 [Compound 141, 4-chloro-3-[7-(3,5-difluoro-2-pyridyl)-4,7-diazaspiro [2.5]octan-4-yl]-1-(1-isopropylsulfonylpyrrol-3-yl) sulfonyl-indazole] |
| ≤ 1 | CC(C)S(=O)(=O)n1ccc(S(=O)(=O)n2nc(N3CCN(c4ncc(F)cc4F)CC34CC4)c3c(Cl)ccc(F)c32)c1 [Compound 142, 4-chloro-3-[7-(3,5-difluoro-2-pyridyl)-4,7-diazaspiro [2.5]octan-4-yl]-7-fluoro-1-(1-isopropylsulfonylpyrrol-3-yl) sulfonyl-indazole] |
| ≤ 1 | O=S(=O)(c1ccn(S(=O)(=O)C2CC2)c1)n1nc(N2CCN(c3ncc(F)cc3F)CC23CC3)c2c(Cl)ccc(F)c21 [Compound 143, 4-chloro-1-((1-(cyclopropylsulfonyl)-1H-pyrrol-3-yl)sulfonyl)-3-(7-(3,5-difluoropyridin-2-yl)-4,7-diazaspiro [2.5]octan-4-yl)-7-fluoro-1H-indazole] |
| ≤ 1 | CC(C)S(=O)(=O)n1ccc(S(=O)(=O)n2nc(N3CCN(c4ncc(F)cc4F)CC34CC4)c3c(F)ccc(F)c32)c1 [Compound 144, 3-[7-(3,5-difluoro-2-pyridyl)-4,7-diazaspiro [2.5]octan-4-yl]-4,7-difluoro-1-(1-isopropylsulfonylpyrrol-3-yl) sulfonyl-indazole] |
| ≤ 1 | O=S(=O)(c1ccn(S(=O)(=O)C2CC2)c1)n1nc(N2CCN(c3ncc(F)cc3F)CC23CC3)c2c(F)ccc(F)c21 [Compound 145, 1-(1-cyclopropylsulfonylpyrrol-3-yl) sulfonyl-3-[7-(3,5-difluoro-2-pyridyl)-4,7-diazaspiro [2.5]octan-4-yl]-4,7-difluoro-indazole] |
| ≤ 1 | CC(C)S(=O)(=O)n1ccc(S(=O)(=O)n2nc(N3CCN(c4ncc(Cl)cc4F)CC34CC4)c3c(Cl)ccc(F)c32)c1 [Compound 147, 4-chloro-3-[7-(5-chloro-3-fluoro-2-pyridyl)-4,7-diazaspiro [2.5]octan-4-yl]-7-fluoro-1-(1-isopropylsulfonylpyrrol-3-yl) sulfonyl-indazole] |
| ≤ 1 | CC(C)S(=O)(=O)n1ccc(S(=O)(=O)n2nc(N3CCN(c4ncc(Cl)cc4F)CC34CC4)c3c(Cl)cc(F)cc32)c1 [Compound 150, 4-chloro-3-(7-(5-chloro-3-fluoropyridin-2-yl)-4,7-diazaspiro [2.5]octan-4-yl)-6-fluoro-1-((1-(isopropylsulfonyl)-1H-pyrrol-3-yl)sulfonyl)-1H-indazole] |
| ≤ 1 | CC(C)S(=O)(=O)n1ccc(S(=O)(=O)n2nc(N3CCN(c4ncc(Cl)cc4F)CC34CC4)c3c(Cl)ccnc32)c1 [Compound 152, 4-chloro-3-[7-(5-chloro-3-fluoro-2-pyridyl)-4,7-diazaspiro [2.5]octan-4-yl]-1-(1-isopropylsulfonylpyrrol-3-yl) sulfonyl-pyrazolo [3,4-b]pyridine] |
| ≤ 1 | CC(C)S(=O)(=O)n1ccc(S(=O)(=O)n2nc(N3CCN(c4ncc(Cl)cn4)CC34CC4)c3c(Cl)cc(F)cc32)c1 [Compound 154, 4-chloro-3-(7-(5-chloropyrimidin-2-yl)-4,7-diazaspiro [2.5]octan-4-yl)-6-fluoro-1-((1-(isopropylsulfonyl)-1H-pyrrol-3-yl)sulfonyl)-1H-indazole] |
| ≤ 1 | CC(C)S(=O)(=O)n1ccc(S(=O)(=O)n2nc(N3CCN(c4ncc(F)cn4)CC34CC4)c3c(Cl)cc(F)cc32)c1 [Compound 155, 4-chloro-6-fluoro-3-(7-(5-fluoropyrimidin-2-yl)-4,7-diazaspiro [2.5]octan-4-yl)-1-((1-(isopropylsulfonyl)-1H-pyrrol-3-yl)sulfonyl)-1H-indazole] |
| ≤ 1 | CC(C)S(=O)(=O)n1ccc(S(=O)(=O)n2nc(N3CCN(c4nc(Cl)ns4)CC34CC4)c3c(Cl)cc(F)cc32)c1 [Compound 156, 3-chloro-5-[4-[4-chloro-6-fluoro-1-(1-isopropylsulfonylpyrrol-3-yl)sulfonyl-indazol-3-yl]-4,7-diazaspiro [2.5]octan-7-yl]-1,2,4-thiadiazole] |
| ≤ 1 | CC(C)S(=O)(=O)n1ccc(S(=O)(=O)n2nc(N3CCN(c4ncc(F)cc4F)CC34CC4)c3c(Cl)cc(F)cc32)c1 [Compound 158, 4-chloro-3-[7-(3,5-difluoro-2-pyridyl)-4,7-diazaspiro [2.5]octan-4-yl]-6-fluoro-1-(1-isopropylsulfonylpyrrol-3-yl) sulfonyl-indazole] |
| ≤ 1 | Cc1cc(S(=O)(=O)n2nc(N3CCN(c4ncc(F)cc4F)CC34CC4)c3c(Cl)cc(F)cc32)c(C)n1S(=O)(=O)C(C)C [Compound 160, 4-chloro-3-[7-(3,5-difluoro-2-pyridyl)-4,7-diazaspiro [2.5]octan-4-yl]-6-fluoro-1-(1-isopropylsulfonyl-2,5-dimethyl-pyrrol-3-yl) sulfonyl-indazole] |
| ≤ 1 | CC(C)S(=O)(=O)n1ccc(S(=O)(=O)n2nc(N3CCN(c4ncccc4F)CC34CC4)c3c(Cl)cc(F)cc32)c1 [Compound 162, 4-chloro-6-fluoro-3-[7-(3-fluoro-2-pyridyl)-4,7-diazaspiro [2.5]octan-4-yl]-1-(1-isopropylsulfonylpyrrol-3-yl) sulfonyl-indazole] |
| ≤ 1 | CC(C)S(=O)(=O)n1ccc(S(=O)(=O)n2nc(N3CCN(c4ccc(F)cn4)CC34CC4)c3c(F)cc(F)cc32)c1 [Compound 165, 4,6-difluoro-3-(7-(5-fluoropyridin-2-yl)-4,7-diazaspiro [2.5]octan-4-yl)-1-((1-(isopropylsulfonyl)-1H-pyrrol-3-yl)sulfonyl)-1H-indazole] |
